Data from patent US20150086622A1, “GROWTH ENHANCEMENT OF INFANTS” (NUTRINIA LTD., priority 2012, published 2015).
“Also recorded” adds a separate entry of the source.

What was measured:
preterm infants [1] = assay: Randomized placebo controlled study: gastrointestinal maturation (days to complete enteral feeding); type: in vivo, human; conditions: all infants; control 7.9; P-value=0.2085
Procedure: A Multi-center, two arms, randomized, double-blinded placebo controlled study was conducted to evaluate the effect of insulin-enriched infant formula on preterm infants. In this study, the population of infants included also babies having extremely low birth weight (inclusion criteria included babies weighing over 750 grams). The insulin was given at a concentration range which is mimicking colostrums concentration (at 400 μU/ml. The study primary goal was to determine whether insulin supplement to the basic preterm oral formula enhances gastrointestinal maturation. The gastrointestinal maturation was evaluated by the ability of the premature infants to achieve complete enteral feeds (150-160 ml/kg/day). The infants were hospitalized in the neonatal hospital ward in the same manner as preterm infants whose parents elected not to participate in the study. The infants were randomly assigned to one of two treatment groups: the study product-InsuMealTM as a test group and Placebo supplement as a control group. The parents, the medical team treating the infants and the study monitor were blinded to the treatment arm. From study day 1, the infants in the test group received the InsuMealTM additive mixed with the ready to feed (RTF) preterm […] formula and the control group received a placebo supplement mixed with the same RTF preterm […] formula. […]

newborn miniature pigs = conditions: oral administration of 85 mU/ml; cited from earlier work
preterm infants [2] = assay: Randomized placebo controlled study: number of hospitalization days to discharge; type: in vivo, human
Procedure: A Multi-center, two arms, randomized, double-blinded placebo controlled study was conducted to evaluate the effect of insulin-enriched infant formula on preterm infants. In this study, the population of infants included also babies having extremely low birth weight (inclusion criteria included babies weighing over 750 grams). The insulin was given at a concentration range which is mimicking colostrums concentration (at 400 μU/ml. The study primary goal was to determine whether insulin supplement to the basic preterm oral formula enhances gastrointestinal maturation. The gastrointestinal maturation was evaluated by the ability of the premature infants to achieve complete enteral feeds (150-160 ml/kg/day). The infants were hospitalized in the neonatal hospital ward in the same manner as preterm infants whose parents elected not to participate in the study. The infants were randomly assigned to one of two treatment groups: the study product-InsuMealTM as a test group and Placebo supplement as a control group. […] From study day 1, the infants in the test group received the InsuMealTM additive mixed with the ready to feed (RTF) preterm […] formula and the control group received a placebo supplement mixed with the same RTF preterm […] formula. Infant maturation and growth was further assessed by the number of hospitalization days required until the preterm infant could be discharged.

preterm infants [3] = conditions: oral, 4 to 28 days of age, 4 U/kg/day; cited from earlier work
low birth weight infants [4] = assay: Clinical studies: safety / side effects of insulin enriched formula; type: in vivo, human
Procedure: Phase I, multi center, non-randomized, open label, single group study to assess the safety of insulin enriched formula on low birth weight infants was conducted in Rabin Medical Center and Laniado Hospital, Israel. The possible effect of the insulin enriched formula on growth of low birth weight infants, born on term (at least 34 weeks of gestation) was also examined in this study. Parents of eligible infants, who met the study criteria, were invited to participate in the study following signing on Informed Consent Form (ICF). From study day 1, the infants received the insulin enriched infant formula ([…], Israel). They were fed with the formula for the first 4 months without the addition of complementary feed. The infants' gender, family origin, gestational age at birth, maternal medications, maternal age, chronic diseases in the family and the infant's condition upon enrollment were recorded. […] At study day 1 and 2, and at 1, 4, 8, 12, 16 and 24 weeks the parents of the infant were asked to come to the neonatal ward for follow up examinations. During the study, the infant's weight, length, head circumference, glucose blood levels, blood count, blood fat, blood chemistry, blood amino acids, insulin antibodies, and serum levels were recorder, as well as food consumption, vomiting, regurgitation and stools frequency were measured and assessed. Infants were to be withdrawn from the study if any serious adverse event or any deterioration in the infant clinical condition had occurred. They were followed up on possible side effects and efficacy measures until 6 months of age. […] A multicenter, double blind, randomized study for studying the effect of the insulin enriched infant formula on the growth of low weight infants was planned to take place in Israel in 2005 (headed by Prof Sirota, Schneider Hospital). Due to low recruitment rate (only 8 premature infants), the study was terminated.

low birth weight infants [5] = assay: Phase I open label single group clinical study of insulin enriched formula: growth in weight, length, head circumference; type: in vivo, human; conditions: at 6 months; CDC growth tables
Procedure: The effect of insulin enriched formula on low birth weight full term infant was examined. Inclusion criteria for participating in the study included: healthy infants 34-42 weeks gestation (“term born infants”); birth weight above 1,650 g, typically between 1750 gram and 2500 gram; no major congenital malformation or any other illness sign; chronological age under 240 hours; mother is not willing to breastfeed the baby during the study period and signed an informed consent. Infant with a high index of suspect for infection before enrolment, maternal diabetes, and medications given until day 1 of the study were excluded. Observed results regarding weight, length, and head circumference were compared to expected values which were obtained from the CDC growth reference tables (ibid) according to the infants' gender, gestational age and percentile of birth weight (BW). Interpolation or extrapolation was used to determine the percentile and the expected gain of each infant. The expected values are specific to the percentile measure at birth. The percentile of each BW was evaluated according to the gender, gestational age and multiplicity (singleton or twin) using published tables for Israel (Dolberg S. et al., IMAJ, 7, 2005, 311-314). No such data were available with respect to the percentiles of length and of head circumference. It was therefore assumed that the BW percentile of each infant is applicable to each of the other two growth measures. […] The infants' gender, family origin, gestational age at birth, maternal medications, maternal age, chronic diseases in the family and the infant's condition upon enrollment were recorded. […] During the study, the infant's weight, length, head circumference, glucose blood levels, blood count, blood fat, blood chemistry, blood amino acids, insulin antibodies, and serum levels were recorder, as well as food consumption, vomiting, regurgitation and stools frequency were measured and assessed. The possible effect of the insulin enriched formula on growth was evaluated with respect to gain in weight, length, and head circumference. […]

insulin: polypeptide hormone; human insulin administered orally to infants, within infant formula
Number of days to achieve complete enteral feeding (>=150 ml/Kg/day), Mean (preterm infants [1]): 6.4 days | Intestine ileal mass and lactase activity (newborn miniature pigs): increased | Number of days to discharge, Mean (preterm infants [2]; all infants, control 33.6, P-value=0.2192): 28.8 days | Number of days to discharge, Mean (preterm infants [2]; infant birth weight < 1300 gr, control 47.0, P value=0.0447): 35.8 days | Hypoglycaemia or other adverse effects (preterm infants [3]): without inducing hypoglycaemia or other adverse effects | Lactase activity (preterm infants [3]): increased lactase activity | Adverse events (low birth weight infants [4]; follow up to 6 months): No deleterious effects; also recorded: no adverse events were observed | Anti-insulin antibodies (low birth weight infants [4]; human, in vivo): did not stimulate the production of anti-insulin antibodies | Hypoglycemia (low birth weight infants [4]; human, in vivo): did not cause hypoglycemia | Effect on head circumference relative to the expected growth (low birth weight infants [5]): 17.6% | Effect on length relative to the expected growth (low birth weight infants [5]): 8.1% | Effect on weight relative to the expected growth (low birth weight infants [5]): 18.1%
